Laboratory results from patent publication US20230310356A1, “COMPOSITION FOR PREVENTING, AMELIORATING, OR TREATING BRAIN DAMAGE AND MILD COGNITIVE IMPAIRMENT COMPRISING GLUTAMINE AS EFFECTIVE COMPONENT” (INDUSTRY-ACADEMIC COOPERATION FOUNDATION GYEONGSANG …, priority 2020, published 2023).

Experiments:
PSD-95 and synaptophysin = assay: Synaptic puncta by co-localization of PSD-95 and synaptophysin after CIS and glutamine supplementation; assay type: in vivo, mouse; settings: infralimbic cortex and hippocampal CA1 region (FIGS. 5E and 6F)
Method: Control (CTL) is a group which received normal diet (common diet with nutritional balance) without any stress, CTL+Gln group is a normal diet group supplemented with glutamine (150 mg/kg of feed) and without any stress, STR is a normal diet group under stress, and STR+Gln group is a normal diet group supplemented with glutamine (150 mg/kg of feed) under stress. The stress group (STR) was individually brought by force to a restrainer for 2 hours every day (i.e., between 2 PM and 4 PM) so that the animals are applied with chronic immobilization stress for 15 days. Twenty-four hours after applying the last stress, the mouse was anesthetized with avertin, and perfused with PBS (pH 7.4) and 4% formaldehyde. After that, the brain was removed, fixed, and cut to a thickness with 40 μm. It was then incubated overnight after the addition of each antibody, nNOS (sc-5302, 200 μg/ml, Santa Cruz, Dallas, TX, USA, 1:50), iNOS (sc-7271, 200 μg/ml, Santa Cruz, 1:20), p47phox (sc-17845, 200 μg/ml, Santa Cruz, 1:20), p67phox (15551-1-AP, 43 μg/150 μl, Proteintech, Rosemont, IL, USA, 1:100), PSD-95 (postsynaptic density-95) (ab12093, 1 mg/ml, Abcam, Cambridge, UK, 1: 200), and synaptophysin (ab14692, 0.65 mg/ml, Abcam, 1: 200). […]

[1] = tested on: 3×TG-AD female mouse (model of Alzheimer's disease); assay: ORT cognitive ability test in animal model of Alzheimer's disease with glutamine diet; assay type: in vivo; settings: 6-weel old compared to the 2-weeks old
Method: (§1) As an animal model for cognitive ability evaluation, a 7-weeks old 3×TG-AD female mouse (8 mice. model of Alzheimer's disease) and a C57BL/6 female mouse (10 mice, control) were selected. The animals of each type were divided into 2 groups, and each group was provided with regular animal feed (i.e., normal diet, ND) or glutamine feed (Gln). The glutamine diet group was allowed to consume the feed containing 150 mg glutamine/kg diet, from 2-months old stage to the end of test (i.e., 6 to 7-months old stage). Health state of the animal was checked by measuring, once a week, the bodyweight of the animal and food intake (FIG. 7A). Cognitive ability test of the mouse as an animal model established above was determined by ORT (object recognition test). The animal was habituated in a box for 2 days. On Day 3, it was allowed to explore two identical objects for 10 minutes. On Day 4, one of the two objects was replaced with a novel object, and then, the animal was allowed to explore further for 5 minutes (FIG. 7B). The time spent by animal for exploring after approaching within 1 cm from the periphery of both objects was measured. After carrying out the calculation using Formula (3) below, DI (discrimination index) was calculated and compared to each other. In the present invention, a different novel object was employed for carrying out each test. […]

nNOS = assay: Double-IHC protein expression after CIS and glutamine supplementation: nNOS; assay type: in vivo, mouse; settings: microglial cells in infralimbic cortex and hippocampal CA1 region; glutamine supplementation diet vs stress group
Method: Control (CTL) is a group which received normal diet (common diet with nutritional balance) without any stress, CTL+Gln group is a normal diet group supplemented with glutamine (150 mg/kg of feed) and without any stress, STR is a normal diet group under stress, and STR+Gln group is a normal diet group supplemented with glutamine (150 mg/kg of feed) under stress. The stress group (STR) was individually brought by force to a restrainer for 2 hours every day (i.e., between 2 PM and 4 PM) so that the animals are applied with chronic immobilization stress for 15 days. To determine the specific changes in the brain tissues after glutamine supplementation, double staining was carried out with a cell marker so that the proteins related to a change in ROS/RNS content (i.e., iNOS; nNOS; and p47phox and p67phox as a subunit of NOX) with cell markers are analyzed by double-IHC (immunohistochemistry). Twenty-four hours after applying the last stress, the mouse was anesthetized with avertin, and perfused with PBS (pH 7.4) and 4% formaldehyde. After that, the brain was removed, fixed, and cut to a thickness with 40 μm. […]

[2] = tested on: C57BL/6 female mouse (NonTg); assay: ORT cognitive ability test in normal control mouse with glutamine diet; assay type: in vivo; settings: until the 6-months old stage, 150 mg glutamine/kg diet
Method: as §1

With `NC(=O)CC[C@H](N)C(=O)O` [glutamine] the “synaptic puncta (co-localization of PSD-95 and synaptophysin)” value (PSD-95 and synaptophysin) was “significantly increased”, the “impairment in cognitive ability (object recognition ability, ORT)” value ([1]; 3×TG-AD glutamine diet group, 150 mg glutamine/kg diet) was “no significant impairment” and the “decrease of DI value in ORT” value ([1]; 3×TG-AD group with glutamine diet, average from each individual) was 0.1. The “expression amount of nNOS” value (nNOS) was “statistically significant decrement” and the “cognitive ability (ORT) change caused by glutamine diet” value [2] was “no change”.
